From patent US6635429B1, “Heterodimeric nuclear receptors proteins, genes encoding same, and usage thereof” (Institut National de la Sante et de la Recherche Medicale, priority 1992, dated 2003) come the findings set out here.

Test [1] concerns the target T1, RXRα-ER(C) (Mus musculus, UniProt P28700, A202E/D171H/D178A/D181Q/G144N/G162A/I142V/INS139MESAKETRY/INS205MKGGIRKDRRGGRMLKHKRQRDDGEGRGEVGSM/K150Y/K170G/K180N/L172N/L183T/L201Y/M203V/N179T/N190K/Q188R/Q198R/R146Y/R169Q/R177P/R187N/R191S/S147A/T167S/T173D/T175M/V168I/Y155W/Y194A/Y197L).
T1 construct: (a.a. 1 to 467), mouse RXRαdn; expressed in transfected cells; host or cells: Saccharomyces cerevisiae PL3 (multicopy YEp10/YEp90, PGK promoter)
T1 sequence (P28700 with tags, fused parts or gaps INS139MESAKETRY/I142V/G144N/R146Y/S147A/K150Y/Y155W/G162A/T167S/V168I/R169Q/K170G/D171H/L172N/T173D/T175M/R177P/D178A/N179T/K180N/D181Q/L183T/R187N/Q188R/N190K/R191S/Y194A/Y197L/Q198R/L201Y/A202E/M203V/INS205MKGGIRKDRRGGRMLKHKRQRDDGEGRGEVGSM): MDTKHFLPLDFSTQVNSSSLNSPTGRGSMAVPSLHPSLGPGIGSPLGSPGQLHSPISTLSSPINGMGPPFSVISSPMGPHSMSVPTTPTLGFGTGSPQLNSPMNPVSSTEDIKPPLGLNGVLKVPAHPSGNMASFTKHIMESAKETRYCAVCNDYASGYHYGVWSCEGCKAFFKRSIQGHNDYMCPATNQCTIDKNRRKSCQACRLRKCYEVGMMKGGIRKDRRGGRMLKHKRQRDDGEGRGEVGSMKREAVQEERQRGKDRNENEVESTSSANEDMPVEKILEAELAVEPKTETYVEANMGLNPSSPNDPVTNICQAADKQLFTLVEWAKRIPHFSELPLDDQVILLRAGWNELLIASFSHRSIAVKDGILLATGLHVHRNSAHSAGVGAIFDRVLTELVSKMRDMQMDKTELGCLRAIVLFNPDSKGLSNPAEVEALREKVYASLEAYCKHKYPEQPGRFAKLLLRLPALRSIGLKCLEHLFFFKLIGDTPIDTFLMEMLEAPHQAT
In words: 3ERE-URA3 reporter transactivation in yeast strain PL3 (OMPdecase activity). The format is cell-based. As to the method:
(§1) Induction of the reporter was determined by measuring the specific activity of the URA3 gene product OMPdecase (see above).
Vector without insert was used as a control (“None”).

The target of test [2] is T2, RARα1-ER.CAS (Homo sapiens, UniProt P10276, INS60IETQSSSSEEIVPSPPSPPPLPRIYKPCAVCNDYASGYHYGVWSCEGCKAFFKRSIQGHNDYMCPATNQCTIDKNRRKSCQACRLRKCYEVGMSKES).
T2 sequence (P10276 with tags, fused parts or gaps isoform P10276-3): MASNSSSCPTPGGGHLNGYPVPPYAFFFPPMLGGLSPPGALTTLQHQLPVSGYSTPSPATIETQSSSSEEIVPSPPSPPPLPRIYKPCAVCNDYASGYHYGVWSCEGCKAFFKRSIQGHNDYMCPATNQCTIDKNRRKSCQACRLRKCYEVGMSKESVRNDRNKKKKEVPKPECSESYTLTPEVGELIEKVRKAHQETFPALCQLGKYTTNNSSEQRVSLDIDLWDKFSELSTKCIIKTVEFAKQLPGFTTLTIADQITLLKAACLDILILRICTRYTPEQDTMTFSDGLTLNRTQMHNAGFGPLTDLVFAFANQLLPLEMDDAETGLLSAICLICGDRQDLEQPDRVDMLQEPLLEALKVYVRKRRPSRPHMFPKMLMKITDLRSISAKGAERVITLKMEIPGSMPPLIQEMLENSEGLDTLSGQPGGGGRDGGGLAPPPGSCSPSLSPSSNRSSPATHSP
As to the method:
The 5′ prime flank of each construct contains a mammalian Kozak's sequence sandwiched between the EcoR1 and the translation start codon (5′-[…]-3′). […] PCR and site-directed mutagenesis were used to create RARα(DEF)-ER.CAS, RARα1(AB)-ER(C), RXRα(DE)-ER.CAS and RXRα(AB)-ER(C) as shown in FIG. 10a. All sequences generated by PCR or site directed mutagenesis were verified by sequencing. […] For transactivation experiments, transformants were grown exponentially for approximately 5 generations in selective medium […] uracil in the presence or absence of ligand, in conditions of diffuse light.
as §1
Vector without insert was used as a control (“None”). Transactivation data are expressed as OMPdecase activities; the mean values shown in the table were determined from duplicate assays with three individual transformants for each clone. The numbers in parentheses indicate the fold induction over the activity observed for each receptor in the absence of ligand.

In test [3] the test system is None (vector without insert). As to the kind of experiment: 3ERE-URA3 reporter in yeast strain PL3, vector without insert (control "None"). The format is cell-based. The following applies: no receptor, yeast PL3, in presence of ligand.
The target of test [4] is T3, RARα (Homo sapiens, UniProt P10276).
T3 construct: The human RARα1 (aa 1-462); expressed in transfected cells; host or cells: Saccharomyces cerevisiae YPH250 (YEp10/YEp90)
T3 sequence (P10276 1-462): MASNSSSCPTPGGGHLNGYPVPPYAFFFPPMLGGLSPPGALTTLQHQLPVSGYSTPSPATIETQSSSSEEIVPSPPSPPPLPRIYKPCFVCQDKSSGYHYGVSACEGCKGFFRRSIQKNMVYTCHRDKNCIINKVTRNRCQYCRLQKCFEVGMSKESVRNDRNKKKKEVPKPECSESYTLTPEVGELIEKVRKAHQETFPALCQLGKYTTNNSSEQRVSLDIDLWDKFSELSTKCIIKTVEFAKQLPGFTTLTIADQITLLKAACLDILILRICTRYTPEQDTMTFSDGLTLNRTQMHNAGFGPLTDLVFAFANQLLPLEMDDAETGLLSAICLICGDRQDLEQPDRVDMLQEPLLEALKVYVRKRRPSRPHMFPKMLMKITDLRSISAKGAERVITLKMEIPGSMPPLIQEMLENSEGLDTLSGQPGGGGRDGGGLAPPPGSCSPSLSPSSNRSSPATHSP
As to the kind of experiment: URA3 reporter (DR5 etc.) transactivation in yeast strain YPH250 (OMPdecase activity). The format is cell-based. Conditions: RARα alone, ligand 5×10^−7 M (500 nM).

In test [5] the target is T4, hRAR-γ binding to β-RARE (Homo sapiens, UniProt P13631).
T4 construct: fused to the amino terminal amino acid of full length hRAR-γ; 14 amino acids from the parental vector pEt3a (bacterially expressed preparation only) (N); made in house; host or cells: E. coli BL21 (DE3) plysS; also rVV-infected HeLa cells, rBV-infected Sf9 cells, yeast (ubiquitin fusion) and rabbit reticulocyte lysate
T4 sequence (P13631 1-454): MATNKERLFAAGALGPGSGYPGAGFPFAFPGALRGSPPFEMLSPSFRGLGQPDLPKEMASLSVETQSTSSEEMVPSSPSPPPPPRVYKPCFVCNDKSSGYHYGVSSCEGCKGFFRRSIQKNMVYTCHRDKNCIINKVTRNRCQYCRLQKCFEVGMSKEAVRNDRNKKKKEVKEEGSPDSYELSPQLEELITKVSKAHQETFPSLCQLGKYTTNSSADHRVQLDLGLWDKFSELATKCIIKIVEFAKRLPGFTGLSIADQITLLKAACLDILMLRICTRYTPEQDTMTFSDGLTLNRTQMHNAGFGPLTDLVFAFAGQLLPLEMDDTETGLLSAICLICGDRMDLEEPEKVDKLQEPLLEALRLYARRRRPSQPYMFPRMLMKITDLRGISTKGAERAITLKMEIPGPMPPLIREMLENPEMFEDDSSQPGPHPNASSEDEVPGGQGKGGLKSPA
T4 sequence (P28702 1-533 partner): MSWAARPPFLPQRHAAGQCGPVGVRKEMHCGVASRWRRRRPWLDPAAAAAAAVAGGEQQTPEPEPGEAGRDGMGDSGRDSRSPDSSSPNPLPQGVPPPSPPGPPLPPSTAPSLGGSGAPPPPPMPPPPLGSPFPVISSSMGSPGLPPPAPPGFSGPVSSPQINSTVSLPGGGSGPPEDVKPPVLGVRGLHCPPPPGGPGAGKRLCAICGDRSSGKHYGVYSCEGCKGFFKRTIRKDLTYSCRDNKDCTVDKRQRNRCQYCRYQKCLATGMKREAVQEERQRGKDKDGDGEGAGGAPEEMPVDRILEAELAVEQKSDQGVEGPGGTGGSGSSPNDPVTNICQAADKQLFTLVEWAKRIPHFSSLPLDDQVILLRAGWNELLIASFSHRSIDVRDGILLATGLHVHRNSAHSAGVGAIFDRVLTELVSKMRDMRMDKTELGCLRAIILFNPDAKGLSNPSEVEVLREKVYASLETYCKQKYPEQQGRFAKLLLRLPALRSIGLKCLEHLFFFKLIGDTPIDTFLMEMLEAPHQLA
As to the kind of experiment: Gel retardation assay of RAR binding to β-RARE (RBF complementation). Conditions: with HeLa cell NE. How it is done: For gel retardation experiments comparing RAR and RXR subtypes and deletion mutants, all proteins were produced by in vitro translation in the presence of [^35S]methionine.
Purification of rVV- and rBV-expressed hRAR-γ is being described elsewhere (Chen et al., manuscript in preparation). […] All steps were carried out at 4° C. and RBF activity was monitored through all purification steps by a complementation gel retardation assay using bacterially-expressed hRAR-γ as described above. […] The column was washed with equilibration buffer until the A280 of the eluent returned to baseline. […] The column was washed with equilibration buffer until the A280 of the eluent returned to baseline and then with 4 column volumes of buffer A containing 0.45 M ammonium sulfate and 50 mM KCl. The column was then eluted with an 18 ml linear gradient from 0.45 to 0 M ammonium sulfate in buffer A containing 50 mM KCl.

For test [6], the system named is RARα and RXRα homodimers or heterodimers.
Where [7] appears, read: FIG. 10b dose response, FIG. 10c ligand 10^−6 M.

For the compound `CC1=C(/C=C/C(C)=C/C=C/C(C)=C/C(=O)O)C(C)(C)CC=C1` [T-ddRA, all-trans 3,4-didehydroretinoic acid], in test [1] (inferred from lack of RXRα-ER(C) activation), the “conversion to 9-cis stereoisomers in yeast” value was “not significantly converted”.

On to `CC1=C(/C=C/C(C)=C/C=C/C(C)=C/C(=O)O)C(C)(C)CCC1` [T-RA, all-trans retinoic acid], for which the “OMP decase activity units” value worked out at 14.70 units in test [2] (3ERE-URA3 reporter, yeast PL3, in presence of ligand) and 0.02 units in test [3]. Moreover, the “stimulation of transactivation by RARα1-ER.CAS” value in test [2] (setting [7]) was “comparably stimulated”. Moreover, the “induction of OMPdecase activity, DR5-URA3 reporter” value in test [4] was “approx. 5 fold”. Also, in test [5], the “effect on formation of the hRAR-γ/β-RARE complex” value was “In no case was the formation of the complex affected”. For the same compound, the “effect on binding of homodimers or heterodimers to the probes” value in test [6] was “did not further stimulate”.

As to `CC1=C(/C=C/C(C)=C\C=C\C(C)=C\C(=O)O)C(C)(C)CCC1` [9C-RA, 9-cis retinoic acid], the “OMP decase activity units” value in test [3] came to 0.02 units. For the same compound, the “effect on binding of homodimers or heterodimers to the probes” value in test [6] is listed as “did not further stimulate”.

Turning to `CC1=C(/C=C/C(C)=C\C=C\C(C)=C\C(=O)O)C(C)(C)CC=C1` [9C-ddRA, 9-cis 3,4-didehydroretinoic acid], in test [1] (setting [7]), the “induction of activation by RXRα-ER(C)” value is reported as “induced”.
